Results on twelve molecules are retold here after patent US20220081421A1, “ANTIBACTERIAL COMPOUNDS” (Forge Therapeutics, Inc., priority 2018, published 2022).

One assay concerns K. pneumoniae. The assay is described as follows: MIC by broth microdilution (CLSI), K. pneumoniae. The note with it: for MIC: Klebsiella pneumoniae, read-out: K. pneumoniae MIC. It is filed as cell-based. How it is done:
Minimal inhibitory concentrations (MIC) were determined by the broth microdilution method in accordance with the Clinical and Laboratory Standards Institute (CLSI) guidelines. In brief, organism suspensions were adjusted to a 0.5 McFarland standard to yield a final inoculum between 3×10^5 and 7×10^5 colony-forming units (CFU)/mL. Drug dilutions and inocula were made in sterile, cation adjusted Mueller-Hinton Broth (Beckton Dickinson). An inoculum volume of 100 μL was added to wells containing 100 μL of broth with 2-fold serial dilutions of drug. All inoculated microdilution trays were incubated in ambient air at 35° C. for 18-24 h. Following incubation, the lowest concentration of the drug that prevented visible growth (OD600 nm<0.05) was recorded as the MIC. Performance of the assay was monitored by the use of laboratory quality-control strains and levofloxacin, a compound with a defined MIC spectrum, in accordance with CLSI guidelines.
(Dilution methods test growth across graded concentrations, often in twofold steps.)

The next assay has as its system E. coli. Description: MIC by broth microdilution (CLSI), E. coli. It is filed as cell-based. The following applies: for MIC: Escherichia coli, read-out: E. coli MIC. Put shortly: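 CLSI broth microdilution in cation-adjusted Mueller-Hinton broth with 2-fold serial drug dilutions; final inoculum 3×10^5–7×10^5 CFU/mL. Incubated 18-24 h at 35° C in ambient air; MIC is the lowest concentration preventing visible growth (OD600 nm<0.05).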

Setting [1] is: broth microdilution, cation adjusted Mueller-Hinton Broth, 35° C., 18-24 h.

≈ marks a conversion by molar mass, not a printed value. Like-named read-outs stand apart in the source and are kept apart here. A value given as a limit tells only on which side of the number the result lay.

Broadly, the MIC is the lowest concentration found to suppress growth.

With `O=c1[nH]cnc(C2(Cc3ccc(C#Cc4ccc(CNC5CCOC5)cc4)cc3)CC2)c1O` (stereo not drawn) [Compound 136, 5-hydroxy-6-(1-(4-((4-(((tetrahydrofuran-3-yl)amino)methyl)phenyl)ethynyl)benzyl)cyclopropyl)pyrimidin-4(3H)-one], the MIC in the assay with K. pneumoniae (setting [1]) was 8 to 32 µg/mL (≈ 18.1 to 72.5 µM); in the assay on E. coli (setting [1]) it was 1 to 8 µg/mL (≈ 2.26 to 18.1 µM).

For `O=C(NCC(F)F)C(Cc1ccc(C#Cc2ccc(C(F)(F)F)nc2)cc1)c1nc[nH]c(=O)c1O` (stereo not drawn) [Compound 26, N-(2,2-difluoroethyl)-2-(5-hydroxy-6-oxo-1,6-dihydropyrimidin-4-yl)-3-(4-((6-(trifluoromethyl)pyridin-3-yl)ethynyl)phenyl) propanamide], the MIC with K. pneumoniae (setting [1]) and in the assay with E. coli (setting [1]) was more than 32 µg/mL in each case.

`O=c1[nH]cnc(CCc2ccc(C#Cc3ccc(CNC4CCOC4)cc3)cn2)c1O` (stereo not drawn) [Compound 20, 5-hydroxy-6-(2-(5-((4-(((tetrahydrofuran-3-yl)amino)methyl)phenyl)ethynyl)pyridin-2-yl)ethyl)pyrimidin-4(3H)-one]: the MIC in the assay with K. pneumoniae (setting [1]) is 8 to 32 µg/mL (≈ 19.2 to 76.8 µM); in the assay with E. coli (setting [1]), less than 1 µg/mL.

As to `O=c1[nH]cnc(C(CNCCF)Cc2ccc(C#Cc3ccc(CN4CCOCC4)nc3)cc2)c1O` (stereo not drawn) [Compound 31, 6-(1-((2-fluoroethyl)amino)-3-(4-((6-(morpholinomethyl)pyridin-3-yl)ethynyl)phenyl)propan-2-yl)-5-hydroxypyrimidin-4(3H)-one], the MIC in the assay on K. pneumoniae (setting [1]) and in the assay with E. coli (setting [1]) was more than 32 µg/mL each time.

Regarding `O=c1[nH]cnc(CNc2ccc(C#Cc3ccc(CN4CCOCC4)cc3)cc2)c1O` [Compound 108, 5-hydroxy-6-(((4-((4-(morpholinomethyl)phenyl)ethynyl)phenyl)amino)methyl) pyrimidin-4(3H)-one], the MIC in the assay on K. pneumoniae (setting [1]) is more than 32 µg/mL; in the assay on E. coli (setting [1]), 1 to 8 µg/mL (≈ 2.4 to 19.2 µM).

In the case of `OCC(Cc1nncc(O)c1O)c1ccc(C#Cc2ccc(CN[C@H]3CCOC3)cc2)cc1` (single isomer, unassigned) [Compound 101], the “K. pneumoniae MIC” value in the assay on K. pneumoniae (setting [1]) is listed as “B (B: >1 μg/mL to ≤8.0 μg/mL)”. The “E. coli MIC” value with E. coli (setting [1]) was “B (B: >1 μg/mL to ≤8.0 μg/mL)”.

Regarding `Cn1cnc(C(CNC(=O)CF)Cc2ccc(C#Cc3ccc(CN4CCOCC4)cc3)cc2)c(O)c1=O` (stereo not drawn) [Compound 132, 2-fluoro-N-(2-(5-hydroxy-1-methyl-6-oxo-1,6-dihydropyrimidin-4-yl)-3-(4-((4-(morpholinomethyl)phenyl)ethynyl)phenyl)propyl)acetamide], the MIC with K. pneumoniae and with E. coli was more than 32 µg/mL each time.

As for `Nc1ccc(C#Cc2ccc(CC(C(=O)NCC(F)F)c3nc[nH]c(=O)c3O)cc2)cn1` (stereo not drawn) [Compound 28, 3-(4-((6-aminopyridin-3-yl)ethynyl)phenyl)-N-(2,2-difluoroethyl)-2-(5-hydroxy-6-oxo-1,6-dihydropyrimidin-4-yl)propanamide], the MIC in the assay on K. pneumoniae (setting [1]) is more than 32 µg/mL; with E. coli (setting [1]), 8 to 32 µg/mL (≈ 18.2 to 72.8 µM).

Regarding `C=CCNCC(Cc1ccc(C#CC#Cc2cn[nH]c2)cc1)c1nc[nH]c(=O)c1O` (stereo not drawn) [Compound 67, 6-(1-(4-((1H-pyrazol-4-yl)buta-1,3-diyn-1-yl)phenyl)-3-(allylamino)propan-2-yl)-5-hydroxypyrimidin-4(3H)-one], the MIC was more than 32 µg/mL in the assay on K. pneumoniae (setting [1]) and 8 to 32 µg/mL (≈ 20 to 80.1 µM) in the assay on E. coli (setting [1]).

Turning to `O=C(NCCO)c1ccc(C#CC#Cc2ccc(CC(CO)c3nc[nH]c(=O)c3O)cc2)cc1` (stereo not drawn) [Compound 32, 4-((4-(3-hydroxy-2-(5-hydroxy-6-oxo-1,6-dihydropyrimidin-4-yl)propyl)phenyl)buta-1,3-diyn-1-yl)-N-(2-hydroxyethyl)benzamide], the MIC in the assay with K. pneumoniae (setting [1]) and with E. coli (setting [1]) was 1 to 8 µg/mL (≈ 2.19 to 17.5 µM) throughout.

Turning to `CC(=O)NCC(Cc1ccc(C#Cc2ccc(CN3CCOCC3)cc2)cc1)c1c(O)cn[nH]c1=O` (stereo not drawn) [Compound 131, N-(2-(5-hydroxy-3-oxo-2,3-dihydropyridazin-4-yl)-3-(4-((4-(morpholinomethyl)phenyl)ethynyl)phenyl)propyl)acetamide], the MIC in the assay with K. pneumoniae (setting [1]) and in the assay with E. coli (setting [1]) was more than 32 µg/mL in each case.

Consider `OCC(Cc1nccc(O)c1O)c1ccc(C#Cc2ccc(CN3CCOCC3)cc2)cc1` (stereo not drawn) [Compound 134, 2-(3-hydroxy-2-(4-((4-(morpholinomethyl)phenyl)ethynyl)phenyl)propyl)pyridine-3,4-diol], for which the MIC in the assay on K. pneumoniae (setting [1]) and in the assay with E. coli (setting [1]) was more than 32 µg/mL each time.
